Experimental data published in ChEMBL document CHEMBL1201862, “PubChem BioAssay data set” (2004).
Calls of active or inactive are those of the source. Rule as the data show it: actives have a measured IC50 and inactives only a lower limit.

Molecular target: Envelope glycoprotein gp160 (Human immunodeficiency virus 1, UniProt Q6QLK5)
Test: inhibitors of HIV fusion peptide binding, primary screen, biochemical, uHTS, fluorescence dequenching (AID 1986)

Envelope glycoprotein gp160, sequence (Q6QLK5 whole entry, the tested form may be a part): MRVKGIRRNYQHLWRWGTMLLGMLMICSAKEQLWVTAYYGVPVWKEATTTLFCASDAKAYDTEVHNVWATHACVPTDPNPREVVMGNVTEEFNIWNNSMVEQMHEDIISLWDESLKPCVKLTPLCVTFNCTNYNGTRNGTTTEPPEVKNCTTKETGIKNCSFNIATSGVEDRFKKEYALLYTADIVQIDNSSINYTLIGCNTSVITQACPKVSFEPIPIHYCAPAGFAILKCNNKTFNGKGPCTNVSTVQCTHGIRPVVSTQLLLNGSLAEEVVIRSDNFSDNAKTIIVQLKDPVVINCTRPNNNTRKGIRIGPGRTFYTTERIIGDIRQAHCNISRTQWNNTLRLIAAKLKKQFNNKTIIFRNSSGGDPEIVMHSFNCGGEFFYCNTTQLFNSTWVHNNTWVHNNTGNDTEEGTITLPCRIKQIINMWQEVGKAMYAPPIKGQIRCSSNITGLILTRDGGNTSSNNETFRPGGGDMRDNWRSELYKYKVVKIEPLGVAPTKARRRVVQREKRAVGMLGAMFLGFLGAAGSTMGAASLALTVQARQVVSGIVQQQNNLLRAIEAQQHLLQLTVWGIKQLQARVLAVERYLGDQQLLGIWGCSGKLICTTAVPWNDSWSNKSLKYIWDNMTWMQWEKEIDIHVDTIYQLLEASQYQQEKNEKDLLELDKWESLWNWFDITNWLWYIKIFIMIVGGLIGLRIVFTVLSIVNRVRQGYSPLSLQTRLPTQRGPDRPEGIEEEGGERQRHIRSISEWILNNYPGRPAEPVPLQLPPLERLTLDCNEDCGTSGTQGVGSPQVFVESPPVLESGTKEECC

O=C(NC(=S)Nc1ccccc1C(=O)O)c1ccc(-c2ccc(Br)cc2)o1
IC50: 18.5 µM (active)

O=C(O)c1ccc(NS(=O)(=O)c2ccc3c(c2)C2C=CCC2C(c2ccccc2F)N3)cc1 (centres undefined)
IC50: 17.7 µM (active)

O=C1NN(c2ccc(Cl)c(Cl)c2)C(=O)/C1=C/c1cccc(OC(=O)c2cccs2)c1
IC50: 11.8 µM (active)

O=C(CCCN1C(=O)/C(=C/c2cccs2)SC1=S)Nc1ccc(O)c(C(=O)O)c1
IC50: 24.1 µM (active)
